Reference: US20140322705A1, “Cancer diagnostic and cancer therapeutic” (Thomas Jefferson University, priority 2010, published 2014)
Entries after “also recorded” stand apart in the source; their conditions may differ.

How the values were obtained:
[1] = tested on: MDA-MB-231 breast cancer cells; assay: MDA-MB-231 flank xenograft tumor growth; format: in vivo, athymic nude mice; settings: 500 mg/kg daily i.p.; tumor volume at 3 weeks post tumor cell injection
Experimental: A xenograft model was employed in which MDA-MB-231 breast cancer cells injected into the flanks of athymic nude mice to evaluate the potential tumor promoting properties of the products of aerobic glycolysis (such as 3-hydroxy-butyrate and L-lactate). Tumor growth was assessed by measuring tumor volume, at 3-weeks post tumor cell injection. During this time period, mice were administered either PBS alone, or PBS containing 3-hydroxy-butyrate (500 mg/kg) or L-lactate (500 mg/kg), via daily intra-peritoneal (i.p.) injections. Note that 3-hydroxy-butyrate is sufficient to promote an ˜2.5-fold increase in tumor growth, relative to the PBS-alone control. Under these conditions.
To evaluate the potential tumor promoting properties of the products of aerobic glycolysis (such as 3-hydroxy-butyrate and L-lacate), a xenograft model employing MDA-MB-231 breast cancer cells injected into the flanks of athymic nude mice was used. Tumor growth was assessed by measuring tumor volume, at 3-weeks post tumor cell injection. During this time period, mice were administered either PBS alone, or PBS containing 3-hydroxy-butyrate (500 mg/kg) or L-lactate (500 mg/kg), via daily intra-peritoneal (i.p.) injections.

[2] = tested on: MDA-MB-231 breast cancer cells; assay: Tumor vascularity by CD31 immuno-staining of xenograft tumors; format: in vivo, athymic nude mice; settings: 500 mg/kg daily i.p.; primary xenograft tumors
Experimental: Tumor angiogenesis could account for the tumor-promoting properties of 3-hydroxy-butyrate. Thus, the status of tumor vascularity was evaluated using antibodies directed against CD31. However, the vascular density (number of vessels per field) was not increased by the administration of either 3-hydroxy-butyrate or L-lactate. Thus, other mechanisms, such as the “Reverse Warburg Effect” may be operating to increase tumor growth. n.s., not significant.
One mechanism that could account for the tumor-promoting properties of 3-hydroxy-butyrate is increased tumor angiogenesis. Thus, the status of tumor vascularity using antibodies directed against CD31 was evaluated. […] Thus, other mechanisms, such as the “Reverse Warburg Effect” may be operating to increase tumor growth.

[3] = tested on: MDA-MB-231 cells; assay: Lung colonization (metastasis) assay, tail vein injection; format: in vivo, athymic nude mice; settings: 7 weeks post-injection; India ink staining
Experimental: To examine the effect of 3-hydroxy-butyrate and L-lactate on cancer cell metastasis, a well-established lung colonization assay was used, where MDA-MB-231 cells are injected into the tail vein of athymic nude mice. After 7 weeks post-injection, the lungs were harvested and the metastases were visualized with India ink staining. Using this approach, the lung parenchyma stains black, while the tumor metastatic foci remain unstained, and appear white. The number of metastases per lung lobe was scored. Note that relative to PBS-alone, the administration of L-lacate stimulated the formation of metastatic foci by ˜10-fold. Under these conditions, 3-hydroxy-butryate had no effect on metastasis formation. *p<0.01, PBS alone versus L-lactate (Student's t-test and ANOVA); *p<0.05, PBS alone versus L-lactate (Mann-Whitney test).
The effect of 3-hydroxy-butyrate and L-lactate on cancer cell metastasis were measured. For this purpose, a well-established lung colonization assay was used, where MDA-MB-231 cells are injected into the tail vein of athymic nude mice. After 7 weeks post-injection, the lungs were harvested and the metastases were visualized with India ink staining. In this method, the lung parenchyma stains black, while the tumor metastatic foci remain unstained, and appear white. For quantitation purposes. the number of metastases per lung lobe was scored.

[4] = tested on: MDA-MB-231 cells; assay: Modified Boyden Chamber (Transwell) cell migration assay; format: cell-based, human; settings: 10 mM in lower chamber
Experimental: 3-hydroxy-butyrate or L-lactate can function as chemo-attractants. shown using a modified “Boyden Chamber” assay, employing Transwell cell culture inserts. MDA-MB-231 cells were placed in the upper chambers, and 3-hydroxy-butyrate (10 mM) or L-lactate (10 mM) were introduced into the lower chambers. Note that both 3-hydroxy-butyrate and L-lactate promoted cancer cell migration by nearly 2-fold. *p<0.05, control (vehicle alone) versus 3-hydroxy-butyrate or L-lactate (Student's t-test).
Next, whether 3-hydroxy-butyrate or L-lactate can function as chemo-attractants was assessed, using a modified “Boyden Chamber” assay, employing Transwell cell culture inserts. MDA-MB-231 cells were placed in the upper chambers, and 3-hydroxy-butyrate (10 mM) or L-lactate (10 mM) were introduced into the lower chambers. […] Thus, the metabolic products of aerobic glycolysis can also function as chemo-attractants for cancer cells, probably via a form of nutrient sensing.

[5] = tested on: MCF7 cancer cells; settings: L-lactate added to culture media; cited from earlier work

Structure (SMILES) | increase in tumor growth (tumor volume) relative to PBS-alone control [1] | vascular density (number of vessels per field), CD31 [2] | formation of lung metastatic foci (metastases per lung lobe) relative to PBS-alone [3] | promotion of cancer cell migration versus vehicle alone [4] | mitochondrial mass [5] | appearance of lung metastatic foci versus PBS-alone controls (representative images) [3]
CC(O)CC(=O)O (stereo not shown) [3-hydroxy-butyrate] | ~2.5 fold | not increased; also recorded: without any significant increases | no effect | ~2 fold | – | –
C[C@H](O)C(=O)O [L-lactate] | no significant effect; also recorded: did not increase | not increased | ~10 fold | ~2 fold | dramatically increase | more numerous, and are also larger in size
